According to PMC3174198, “Virtual High-Throughput Screening Identifies Mycophenolic Acid as a Novel RNA Capping Inhibitor” (PLoS ONE, 2011):

Assays:
[1] = target: T1, Chlorella virus DNA ligase (Paramecium bursaria Chlorella virus 1, UniProt O41026); assay: Ligation assay: strand joining of nicked DNA duplex (complete reaction)
[2] = target: T2, GTase of S. cerevisiae (Ceg1 protein) (Saccharomyces cerevisiae, UniProt Q01159); assay: Complete RNA guanylyltransferase reaction (both steps), standard GTase assay; type: biochemical
T2 construct: made in house
T2 sequence (Q01159 1-459): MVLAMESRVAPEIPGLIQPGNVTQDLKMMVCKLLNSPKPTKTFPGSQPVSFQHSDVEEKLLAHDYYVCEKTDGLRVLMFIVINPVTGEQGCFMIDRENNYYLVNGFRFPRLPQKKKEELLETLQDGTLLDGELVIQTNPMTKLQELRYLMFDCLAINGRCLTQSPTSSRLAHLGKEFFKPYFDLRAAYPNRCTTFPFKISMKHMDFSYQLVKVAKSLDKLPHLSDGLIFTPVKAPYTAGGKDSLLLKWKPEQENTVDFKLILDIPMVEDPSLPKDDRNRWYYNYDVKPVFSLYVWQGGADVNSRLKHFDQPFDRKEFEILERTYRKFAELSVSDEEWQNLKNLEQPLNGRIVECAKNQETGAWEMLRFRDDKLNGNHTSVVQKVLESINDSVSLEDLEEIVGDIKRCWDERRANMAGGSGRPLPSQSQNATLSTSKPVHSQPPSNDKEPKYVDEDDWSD

[3] = system: S. cerevisiae cells; assay: Primer extension analysis of SSA1 mRNA 5' ends (RNA cap formation in cells); type: cell-based; conditions: 500 µg/ml MPA for 3 h
[4] = target: T3, yeast GTase enzyme-GMP complex (Saccharomyces cerevisiae, UniProt Q01159); assay: UV-crosslinking of radiolabelled RNA to the enzyme-GMP complex; parameters: species or system S. cerevisiae; conditions: 81 nt 5'-triphosphate radiolabelled RNA (3 µM), read-out: IC50 for inhibition of RNA binding to the enzyme-GMP complex
T3 construct: made in house
Experimental: UV-crosslinking between the internally ^32P-labeled RNA of 81 nt and the yeast GTase was performed in a crosslink buffer (50 mM Tris pH 7.5, 5 mM DTT, 5 mM MgCl2). The protein (12 µM) was incubated with GTP (1 mM) and different concentrations of MPA for 10 minutes at 30°C. The radiolabeled RNA (3 µM) was added to the reaction mixture and incubated for 5 minutes at 30°C. The reaction mixture was exposed to UV light (254 nm, 20 Joules/cm^2) for 5 min at 30°C using a Stratalinker 2400 UV Crosslinker (Stratagene). The crosslink mixture was denatured (50 mM Tris-HCl, pH 7.0, 5% sucrose, 5% b-mercaptoethanol, 2% SDS) and separated by electrophoresis on a 12% SDS-PAGE. The gel was analyzed by phosphorimaging.
It is tempting to speculate that the opening of the active site of the enzyme that is normally observed following the hydrolysis of GTP to produce the enzyme-GMP covalent intermediate is inhibited by MPA. Following the formation of the GMP adduct, the enzyme must open up to provide access for the incoming mRNA substrate, since this site is blocked off in the closed form of the enzyme. […] In order to validate this hypothesis, cross-linking assays were used to monitor the binding of radiolabelled RNA to the enzyme-GMP complex with or without MPA. […]
Figure 5 Binding of MPA to the enzyme-GMP complex inhibits the interaction with RNA. […] (B) The reaction products were quantified by phosphorimaging.

[5] = target: T2, GTase of S. cerevisiae (Ceg1 protein); assay: Second step of GTase reaction: transfer of GMP onto acceptor RNA; type: biochemical; conditions: enzyme pre-incubated with GTP, then acceptor 5'-diphosphate RNA added with MPA
Experimental: (§1) Figure 2 Mycophenolic acid inhibits the RNA guanylyltransferase activity. (A) Molecular structure of mycophenolic acid (MPA). (B) Increasing concentrations of MPA inhibit the complete RNA guanylyltransferase reaction. […] The reaction products were analyzed on a denaturing polyacrylamide gel and quantified (right side of the panel). (C) MPA is not a potent inhibitor of the first step of the GTase reaction. […] (D) The second step of the GTase reaction is inhibited by MPA. […] Formation of the radiolabeled capped GpppRNA was monitored following electrophoresis on a denaturant polyacrylamide gel.

[6] = target: T1, Chlorella virus DNA ligase; assay: Second step of ligation: AMP transfer to 5'-phosphate DNA (1-nt gapped substrate); type: biochemical; conditions: enzyme pre-incubated with ATP; 1-nt gapped DNA substrate
Source text: (§2) An autoradiogram of the gel is shown.

[7] = target: T4, RNA guanylyltransferase from vaccinia virus (D1R) (Vaccinia virus, UniProt P04298); assay: biochemical
T4 construct: made in house

[8] = target: T2, GTase of S. cerevisiae (Ceg1 protein); assay: First step of GTase reaction: enzyme-GMP covalent complex formation; type: biochemical
Experimental: The assay was performed by incubating the enzyme (0.1 µM) with 10 µM [α-^32P]GTP in a buffer containing 50 mM Tris-HCl, pH 8, 5 mM DTT, and 5 mM MgCl2 for 5 min at 30°C. […] The reactions were analyzed by electrophoresis through a 12.5% polyacrylamide gel containing 0.1% SDS. The radiolabeled proteins were visualized by autoradiography of the gel.
as §1

[9] = target: T5, human RNA guanylyltransferase (HCE) (Homo sapiens, UniProt O60942); assay: First and second step of the GTase reaction, human enzyme; type: biochemical; conditions: enzyme-GMP formation
T5 construct: made in house

[10] = target: T1, Chlorella virus DNA ligase; assay: First step of ligation: enzyme-AMP covalent complex formation; type: biochemical
Source text: as §2

[11] = target: T6, RNA guanylyltransferase from Chlorella virus (A103R) (Paramecium bursaria Chlorella virus 1, UniProt Q84424); assay: First and second step of the GTase reaction, Chlorella enzyme; type: biochemical
T6 construct: made in house

[12] = target: T7, RNA guanylyltransferase (Saccharomyces cerevisiae, UniProt Q01159); assay: Substrate test: capillary electrophoresis of enzyme adduct and TLC of RNA capping products; type: biochemical, S. cerevisiae; conditions: 1 mM MPA
T7 construct: made in house
T7 sequence (Q01159 1-459): T2 sequence (Q01159 1-459)
Source text: In the typical GTase reaction, the nucleophilic attack on the α-phosphate of GTP by the enzyme during the first step of the reaction results in the formation of a covalent intermediate in which GMP is linked via a phosphoamide bond to a lysine residue of the enzyme. […] Although MPA is not a nucleoside analog per se, we were still interested to monitor its ability to potentially be used as a substrate by the enzyme. The appearance of a slower migrating protein species is traditionally observed upon electrophoresis through a polyacrylamide gel when an RNA capping enzyme is incubated with GTP [25]. This slower migrating species corresponds to the enzyme with covalently bound GMP. We therefore incubated the enzyme in the presence of GTP or MPA and the polypeptide was analyzed by capillary electrophoresis. […] Aliquots of the RNA samples were then digested with nuclease P1 and alkaline phosphatase and analyzed by polyethyleneimine-cellulose thin layer chromatography (Fig. 3B).
(A) Capillary electrophoresis analysis of the RNA capping reaction. The GTase reactions were performed in the presence of the purified enzyme (1 µM) and GTP (1 mM) or MPA (1 mM), and the reaction products were analyzed by capillary electrophoresis. […] The reaction products were analyzed by thin layer chromatography on a polyethyleneimine-cellulose plate developed with 0.5 M LiCl and 1 M formic acid. […]

T1 sequence (O41026 entry or part of it): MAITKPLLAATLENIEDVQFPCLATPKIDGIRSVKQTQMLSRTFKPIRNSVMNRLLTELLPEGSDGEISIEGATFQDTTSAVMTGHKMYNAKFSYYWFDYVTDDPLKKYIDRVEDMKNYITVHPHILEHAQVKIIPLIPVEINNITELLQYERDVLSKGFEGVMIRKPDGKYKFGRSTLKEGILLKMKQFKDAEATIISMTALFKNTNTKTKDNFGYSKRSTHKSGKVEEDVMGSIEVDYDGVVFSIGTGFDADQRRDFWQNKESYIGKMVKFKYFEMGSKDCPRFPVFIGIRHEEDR
T5 sequence (O60942 whole entry): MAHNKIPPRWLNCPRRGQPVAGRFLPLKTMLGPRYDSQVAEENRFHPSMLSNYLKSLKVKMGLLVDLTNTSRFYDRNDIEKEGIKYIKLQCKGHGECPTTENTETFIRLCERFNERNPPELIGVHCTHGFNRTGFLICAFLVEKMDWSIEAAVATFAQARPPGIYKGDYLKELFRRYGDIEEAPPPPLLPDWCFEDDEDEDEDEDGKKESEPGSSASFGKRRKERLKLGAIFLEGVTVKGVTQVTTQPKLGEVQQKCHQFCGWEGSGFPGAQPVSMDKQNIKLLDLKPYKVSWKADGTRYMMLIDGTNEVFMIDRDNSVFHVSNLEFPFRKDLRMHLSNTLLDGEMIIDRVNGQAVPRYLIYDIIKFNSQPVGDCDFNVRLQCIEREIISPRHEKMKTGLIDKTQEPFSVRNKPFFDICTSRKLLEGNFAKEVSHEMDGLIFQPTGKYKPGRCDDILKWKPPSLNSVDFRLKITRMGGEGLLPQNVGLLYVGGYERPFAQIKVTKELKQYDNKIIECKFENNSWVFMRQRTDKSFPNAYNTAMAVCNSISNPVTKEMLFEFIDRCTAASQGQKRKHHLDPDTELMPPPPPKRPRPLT
T6 sequence (Q84424 whole entry, stated change not applied): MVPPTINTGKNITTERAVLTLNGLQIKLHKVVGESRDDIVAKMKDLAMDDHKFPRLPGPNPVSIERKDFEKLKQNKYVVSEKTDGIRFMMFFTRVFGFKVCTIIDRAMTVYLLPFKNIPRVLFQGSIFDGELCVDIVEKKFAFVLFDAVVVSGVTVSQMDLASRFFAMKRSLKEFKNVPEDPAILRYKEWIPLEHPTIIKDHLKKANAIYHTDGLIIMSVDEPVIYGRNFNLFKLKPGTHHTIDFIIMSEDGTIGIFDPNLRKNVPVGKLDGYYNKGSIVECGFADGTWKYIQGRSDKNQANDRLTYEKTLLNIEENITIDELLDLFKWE

Structure (SMILES): COc1c(C)c2c(c(O)c1C/C=C(\C)CCC(=O)O)C(=O)OC2 [MPA, mycophenolic acid]
- IC50 [1]: 700 µM
- IC50 [2]: 360 µM
- inhibition at 900 µM ([2]; at 900 µM MPA, both steps, read-out: inhibition of the overall GTase activity): 80%
- reduction of cap formation [3]: 50%
- IC50 [4]: 410 µM
- IC50 [5]: 640 µM
- IC50 [6]: 600 µM
- IC50 [7]: ~3000 µM
- IC50 [8]: 3000 µM
- concentration for first step relative to amount required to inhibit the overall GTase reaction ([8]; first step IC50 / overall (both steps) IC50): 8 times
- IC50 [9]: ~3000 µM
- IC50 ([10]; enzyme-AMP covalent complex formation): ~3000 µM
- concentration for first step relative to amount required to inhibit the overall reaction ([10]; first step IC50 / overall ligation IC50): 4 times
- IC50 [11]: ~3000 µM
- use as substrate by the GTase (slower migrating covalent enzyme species) ([12]; capillary electrophoresis): not a substrate
- transfer to an acceptor RNA ([12]; nuclease P1 + alkaline phosphatase digestion, TLC): could not be detected
